19 molecules from patent US9062041B2 (Bayer Intellectual Property GmbH, priority 2011, dated 2015) can be followed below.

Assay type in all cases: cell-based
Test [1] has as its target T1, human PGD receptor (Homo sapiens, UniProt Q13258).
T1 sequence (Q13258 1-359): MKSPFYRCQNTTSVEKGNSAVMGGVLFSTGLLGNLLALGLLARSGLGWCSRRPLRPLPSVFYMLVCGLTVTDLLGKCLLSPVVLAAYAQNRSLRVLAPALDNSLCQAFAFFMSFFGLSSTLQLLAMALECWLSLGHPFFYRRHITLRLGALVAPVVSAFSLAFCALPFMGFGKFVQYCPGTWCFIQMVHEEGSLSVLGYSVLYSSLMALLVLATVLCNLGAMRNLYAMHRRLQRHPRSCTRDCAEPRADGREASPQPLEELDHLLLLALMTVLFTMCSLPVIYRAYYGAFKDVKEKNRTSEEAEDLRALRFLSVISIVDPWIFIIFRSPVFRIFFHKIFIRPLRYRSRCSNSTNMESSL
Put plainly: cAMP antagonism test on the human prostaglandin D receptor (HTRF cAMP detection). Conditions: selectivity towards hDP, IC50 measured by cAMP antagonism test. In short, it runs like this: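 Cells pre-mixed with cAMP-d2 were preincubated with compound (0.8 nM–16.5 μM) for 20 min at RT, then stimulated with 3× PGD2 solution (6 nM, in PBS-IBMX) for 30 min at RT. After lysis (20 min), HTRF read at 665/620 nm; antagonism seen as rise in FRET ratio.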
(In TR-FRET formats the signal depends on donor and acceptor labels being close together.)

The target in test [2] is EP2 subtype of the human PGE2 receptor (Homo sapiens, UniProt P43116). Put plainly: cAMP antagonism test on the human EP2 receptor (HTRF cAMP detection). Particulars: hEP2 receptor, read-out: Antagonism hEP2 IC50. In short, it runs like this:
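Cells expressing human EP2 preincubated 20 min at RT with compound (0.8 nM–16.5 μM), then stimulated 60 min with PGE2 (3× solution 1.5 nM) in PBS-IBMX. After 20 min lysis, cAMP measured by competitive HTRF with cAMP-d2 and Eu cryptate anti-cAMP antibody (665/620 nm ratio).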

The target in test [3] is EP4 subtype of the human PGE2 receptor (Homo sapiens, UniProt P35408). Put plainly: cAMP antagonism test on the human EP4 receptor (HTRF cAMP detection). Conditions: selectivity towards hEP4, IC50 measured by cAMP antagonism test. In a few lines:
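Cells expressing human EP4 preincubated 20 min at RT with compound (0.8 nM–16.5 μM), then stimulated with PGE2 (0.3 nM in 3× solution, with IBMX) 60 min at RT. After lysis, cAMP measured by HTRF competition (665/620 nm ratio); antagonism seen as rise in FRET signal.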

Sequence of EP4 subtype of the human PGE2 receptor (P35408 whole entry): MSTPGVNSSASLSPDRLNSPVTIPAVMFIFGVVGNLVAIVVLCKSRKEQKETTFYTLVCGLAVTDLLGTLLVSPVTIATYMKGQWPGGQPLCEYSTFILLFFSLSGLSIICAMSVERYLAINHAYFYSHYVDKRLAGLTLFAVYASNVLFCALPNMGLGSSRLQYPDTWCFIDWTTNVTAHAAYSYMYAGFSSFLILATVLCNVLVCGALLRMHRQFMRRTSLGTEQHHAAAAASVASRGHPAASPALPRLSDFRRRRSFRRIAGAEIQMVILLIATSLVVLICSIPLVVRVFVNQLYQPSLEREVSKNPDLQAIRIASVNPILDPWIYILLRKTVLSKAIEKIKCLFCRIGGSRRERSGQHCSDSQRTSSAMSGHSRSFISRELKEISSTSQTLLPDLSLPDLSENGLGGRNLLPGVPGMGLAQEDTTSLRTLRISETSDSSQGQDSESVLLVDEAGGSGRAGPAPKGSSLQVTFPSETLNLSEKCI
Sequence of EP2 subtype of the human PGE2 receptor (P43116 whole entry): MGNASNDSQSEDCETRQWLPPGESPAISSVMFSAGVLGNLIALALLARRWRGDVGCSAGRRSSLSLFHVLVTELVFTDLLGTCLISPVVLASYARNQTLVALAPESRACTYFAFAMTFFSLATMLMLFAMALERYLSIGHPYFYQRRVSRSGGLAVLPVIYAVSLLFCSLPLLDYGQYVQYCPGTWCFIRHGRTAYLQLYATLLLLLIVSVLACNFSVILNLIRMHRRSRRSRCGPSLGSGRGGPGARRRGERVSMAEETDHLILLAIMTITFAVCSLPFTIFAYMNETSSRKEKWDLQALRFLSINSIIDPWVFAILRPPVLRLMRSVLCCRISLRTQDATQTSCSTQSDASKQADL

A word on the IC50: it is the midpoint of a concentration-inhibition curve. With `COC(C)CNC(=O)c1ccc2nn(CC3CN(C(=O)c4ccc(Oc5ccc(F)cc5)cc4)C3)cc2c1C` (racemic) [Example 147, (+/−)-2-({1-[4-(4-fluorophenoxy)benzoyl]azetidin-3-yl}methyl)-N-(2-methoxypropyl)-4-methyl-2H-indazol-5-carboxamide], the “Selectivity hEP2/hDP” value in test [1] is on record as “xxx (xxx > 100)”. The IC50 in test [2] turned out to be 57.4 nM. The “Selectivity hEP2/hEP4” value in test [3] is recorded as “xxx (xxx > 100)”.

With `Cc1c(C(=O)NCCN2CCOCC2)ccc2nn(CC3CCN(C(=O)c4ccc(C(F)(F)F)cc4F)CC3)cc12` [Example 58, 2-({1-[2-fluoro-4-(trifluoromethyl)benzoyl]piperidin-4-yl}methyl)-4-methyl-N-(2-morpholinoethyl)-2H-indazol-5-carboxamide], the “Selectivity hEP2/hDP” value in test [1] is reported as “xx (xx: 10-100)”. Besides, in test [2], the half-maximal inhibitory concentration (IC50) was determined as 1080 nM. Further, in test [3], the “Selectivity hEP2/hEP4” value is reported as “xx (xx: 10-100)”.

In the case of `COCCNC(=O)c1cc2cn(CC3CCN(C(=O)c4ccc(C(F)(F)F)c(F)c4)CC3)nc2cc1C` [Example 208, 2-({1-[3-fluoro-4-(trifluoromethyl)benzoyl]piperidin-4-yl}methyl)-N-(2-methoxyethyl)-6-methyl-2H-indazol-5-carboxamide], in test [1], the “Selectivity hEP2/hDP” value was “xxx (xxx > 100)”. In addition, in test [2], the IC50 worked out at 80.6 nM. Further, in test [3], the “Selectivity hEP2/hEP4” value is reported as “xxx (xxx > 100)”.

For `COCCNC(=O)c1ccc2nn(CC3CCN(C(=O)c4ccc(-c5ccc(OC)cc5C)cc4)CC3)cc2c1C` [Example 370, N-(2-methoxyethyl)-2-({1-[(4′-methoxy-2′-methylbiphenyl-4-yl)carbonyl]-piperidin-4-yl}methyl)-4-methyl-2H-indazol-5-carboxamide], the “Selectivity hEP2/hDP” value in test [1] was “xxx (xxx > 100)”. In test [2], the IC50 turned out to be 3.07 nM. For the same molecule, in test [3], the “Selectivity hEP2/hEP4” value is given as “xxx (xxx > 100)”.

Regarding `Cc1c(C(=O)NCCS(C)(=O)=O)ccc2nn(CC3CCN(C(=O)c4ccc(Cl)cc4)CC3)cc12` [Example 244, 2-{[1-(4-chlorobenzoyl)piperidin-4-yl]methyl}-N-(2-mesylethyl)-4-methyl-2H-indazol-5-carboxamide], in test [1], the “Selectivity hEP2/hDP” value is given as “xxx (xxx > 100)”. Moreover, in test [2], the IC50 was determined as 44.2 nM. Moreover, in test [3], the “Selectivity hEP2/hEP4” value is listed as “xxx (xxx > 100)”.

As for `Cc1cc2nn(CC3CN(C(=O)c4ccc(Cl)cc4)C3)cc2cc1C(=O)NCCN1CCOCC1` [Example 278, 2-{[1-(4-chlorobenzoyl)azetidin-3-yl]methyl}-6-methyl-N-(2-morpholinoethyl)-2H-indazol-5-carboxamide], in test [1], the “Selectivity hEP2/hDP” value is listed as “xxx (xxx > 100)”. In test [2], the IC50 stood at 104 nM. Also, the “Selectivity hEP2/hEP4” value in test [3] was “xxx (xxx > 100)”.

Take `Cc1c(C(=O)NCC(C)OCC2CC2)ccc2nn(CC3CCN(C(=O)c4ccc(C(F)(F)F)cc4)CC3)cc12` (racemic) [Example 104, (+/−)-N-[2-(cyclo-propylmethoxy)-propyl]-4-methyl-2-({1-[4-(trifluoro-mcthyl)benzoyl]-piperidin-4-yl}-methyl)-2H-indazol-5-carboxamide]: the “Selectivity hEP2/hDP” value in test [1] is listed as “xx (xx: 10-100)”. Also, the IC50 in test [2] stood at 513 nM. In test [3], the “Selectivity hEP2/hEP4” value is recorded as “xx (xx: 10-100)”.

For `Cc1ccc(-c2ccc(C(=O)N3CCC(Cn4cc5c(C)c(C(=O)NCC(F)(F)F)ccc5n4)CC3)cc2)nc1` [Example 324, 4-methyl-2-({1-[4-(5-methylpyridin-2-yl)benzoyl]piperidin-4-yl}methyl)-N-(2,2,2-trifluoroethyl)-2H-indazol-5-carboxamide], the “Selectivity hEP2/hDP” value in test [1] is “xx (xx: 10-100)”. Also, in test [2], the IC50 was found to be 460 nM. Besides, the “Selectivity hEP2/hEP4” value in test [3] is “xx (xx: 10-100)”.

Regarding `COCCNC(=O)c1cc2cn(CC3CCN(C(=O)c4ccc(Cl)cc4)CC3)nc2cc1C` [Example 205, 2-{[1-(4-chlorobenzoyl)piperidin-4-yl]methyl}-N-(2-methoxyethyl)-6-methyl-2H-indazol-5-carboxamide], in test [1], the “Selectivity hEP2/hDP” value is reported as “xxx (xxx > 100)”. The IC50 in test [2] came to 43.3 nM. Also, in test [3], the “Selectivity hEP2/hEP4” value is “xxx (xxx > 100)”.

For `Cc1c(C(=O)NCC(F)(F)F)ccc2nn(CC3CCN(C(=O)c4ccc(Oc5ccc(C(F)(F)F)cn5)cc4)CC3)cc12` [Example 301, 4-methyl-N-(2,2,2-trifluoroethyl)-2-{[1-(4-{[5-(trifluoromethyl)pyridin-2-yl]-oxy}benzoyl)piperidin-4-yl]methyl}-2H-indazol-5-carboxamide], the “Selectivity hEP2/hDP” value in test [1] was “xxx (xxx > 100)”. Further, in test [2], the IC50 amounted to 24.5 nM. Besides, in test [3], the “Selectivity hEP2/hEP4” value was “xxx (xxx > 100)”.

Regarding `COCCNC(=O)c1cc2cn(CC3CCN(C(=O)c4ccc(C(F)(F)F)cc4F)CC3)nc2cc1C` [Example 206, 2-({1-[2-fluoro-4-(trifluoromethyl)benzoyl]piperidin-4-yl}methyl)-N-(2-methoxy-ethyl)-6-methyl-2H-indazol-5-carboxamide], the “Selectivity hEP2/hDP” value in test [1] was “xxx (xxx > 100)”. For the same molecule, the IC50 in test [2] stood at 41.3 nM. Besides, in test [3], the “Selectivity hEP2/hEP4” value was “xxx (xxx > 100)”.

`Cc1c(C(=O)NCCS(C)(=O)=O)ccc2nn(CC3CCN(C(=O)c4ccc(Oc5ccc(C(F)(F)F)cn5)cc4)CC3)cc12` [Example 396, N-(2-mesylethyl)-4-methyl-2-{[1-(4-{[5-(trifluoromethyl)pyridin-2-yl]oxy}-benzoyl)piperidin-4-yl]methyl}-2H-indazol-5-carboxamide]: in test [1], the “Selectivity hEP2/hDP” value is “xxx (xxx > 100)”. Moreover, in test [2], the IC50 was determined as 18 nM. For the same molecule, the “Selectivity hEP2/hEP4” value in test [3] is given as “xxx (xxx > 100)”.

Turning to `COCCNC(=O)c1cc2cn(CC3CN(C(=O)c4ccc(C5CC5)cc4)C3)nc2cc1C` [Example 200, 2-{[1-(4-cyclopropylbenzoyl)azetidin-3-yl]methyl}-N-(2-methoxyethyl)-6-methyl-2H-indazol-5-carboxamide], the “Selectivity hEP2/hDP” value in test [1] is recorded as “xxx (xxx > 100)”. For the same molecule, in test [2], the IC50 was determined as 15.1 nM. The “Selectivity hEP2/hEP4” value in test [3] is “xxx (xxx > 100)”.

As for `COCCNC(=O)c1cc2cn(CC3CN(C(=O)c4cc(F)cc(F)c4)C3)nc2cc1C` [Example 179, 2-{[1-(3,5-Difluorobenzoyl)azetidin-3-yl]methyl}-N-(2-methoxyethyl)-6-methyl-2H-indazol-5-carboxamide], in test [1], the “Selectivity hEP2/hDP” value is on record as “x (x: 1-10)”. For the same molecule, the IC50 in test [2] came to 2610 nM. The “Selectivity hEP2/hEP4” value in test [3] is recorded as “x (x: 1-10)”.

Turning to `COCCNC(=O)c1ccc2nn(CC3CCN(C(=O)c4ccc(-c5ccc(Cl)cn5)cc4)CC3)cc2c1C` [Example 368, 2-({1-[4-(5-chloropyridin-2-yl)benzoyl]piperidin-4-yl}methyl)-N-(2-methoxy-ethyl)-4-methyl-2H-indazol-5-carboxamide], the “Selectivity hEP2/hDP” value in test [1] is “xxx (xxx > 100)”. The IC50 in test [2] was found to be 12 nM. Further, the “Selectivity hEP2/hEP4” value in test [3] is on record as “xxx (xxx > 100)”.

Regarding `COCCNC(=O)c1ccc2nn(CC3CCN(C(=O)c4ccc(S(F)(F)(F)(F)F)cc4)CC3)cc2c1OC` [Example 268, 4-methoxy-N-(2-methoxyethyl)-2-({1-[4-(pentafluoro-λ^6-sulphanyl)benzoyl]-piperidin-4-yl}methyl)-2H-indazol-5-carboxamide], in test [1], the “Selectivity hEP2/hDP” value is “xxx (xxx > 100)”. Also, the IC50 in test [2] turned out to be 22.9 nM. Moreover, in test [3], the “Selectivity hEP2/hEP4” value is given as “xxx (xxx > 100)”.

Regarding `Cc1c(C(=O)NCC2COCCO2)ccc2nn(CC3CCN(C(=O)c4ccc(Oc5ccc(C(F)(F)F)cc5)cc4)CC3)cc12` (racemic) [Example 249, (+/−)-N-(1,4-dioxan-2-ylmethyl)-4-methyl-2-[(1-{4-[4-(trifluoromethyl)phenoxy]benzoyl}piperidin-4-yl)methyl]-2H-indazol-5-carboxamide], in test [1], the “Selectivity hEP2/hDP” value is listed as “xxx (xxx > 100)”. The IC50 in test [2] is 11.2 nM. Also, the “Selectivity hEP2/hEP4” value in test [3] is “xxx (xxx > 100)”.

Consider `Cc1c(C(=O)NCC2COCCO2)ccc2nn(CC3CN(C(=O)c4ccc(Cl)cc4)C3)cc12` (racemic) [Example 141, (+/−)-2-{[1-(4-chlorobenzoyl)azetidin-3-yl]methyl}-N-(1,4-dioxan-2-ylmethyl)-4-methyl-2H-indazol-5-carboxamide], for which, in test [1], the “Selectivity hEP2/hDP” value is on record as “xxx (xxx > 100)”. For the same molecule, in test [2], the IC50 was 143 nM. The “Selectivity hEP2/hEP4” value in test [3] is “xxx (xxx > 100)”.

Take `COc1ccc2cc(C(=O)N3CC(Cn4cc5c(C)c(C(=O)NCC(F)(F)F)ccc5n4)C3)n(C)c2c1` [Example 169, 2-({1-[(6-methoxy-1-methyl-1H-indol-2-yl)carbonyl]azetidin-3-yl}methyl)-4-methyl-N-(2,2,2-trifluoroethyl)-2H-indazol-5-carboxamide]: in test [1], the “Selectivity hEP2/hDP” value was “xxx (xxx > 100)”. Besides, the IC50 in test [2] amounted to 27.7 nM. For the same molecule, the “Selectivity hEP2/hEP4” value in test [3] was “xxx (xxx > 100)”.
